Assay results published in US20020102688A1, “Methods and products for the synthesis of oligosaccharide structures on glycoproteins, glycolipids, or as free molecules, and for the isolation of cloned genetic sequences that determine these structures” (The Regents of the University of Michigan, priority 1990, published 2002).

Key:
Fuc-TV = molecular target: T1, Fuc-TV (Homo sapiens, UniProt Q11128); assay: Fucosyltransferase assay, extracts of COS-1 cells transfected with pCDNA1-Fuc-TV; assay type: biochemical; conditions: for utilization as acceptor substrate by Fuc-TV (in words): extracts of COS-1 cells transfected with pCDNA1-Fuc-TV; for Relative Activity (%) with Fuc-TV: relative product formation rate, N-acetyllactosamine = 100, acceptor 20 mM (2-fucosyllactose 5 mM), GDP-[14C]fucose 3 μM, transfected COS-1 cell extract
T1 construct: a 1.94 kb Earl-Xbal fragment containing the entire open reading frame was cloned into a mammalian expression vector; expressed in transfected cells; host or cells: COS-1 cells, transient transfection, 1% Triton X-100 extract
T1 sequence (Q11128 1-374): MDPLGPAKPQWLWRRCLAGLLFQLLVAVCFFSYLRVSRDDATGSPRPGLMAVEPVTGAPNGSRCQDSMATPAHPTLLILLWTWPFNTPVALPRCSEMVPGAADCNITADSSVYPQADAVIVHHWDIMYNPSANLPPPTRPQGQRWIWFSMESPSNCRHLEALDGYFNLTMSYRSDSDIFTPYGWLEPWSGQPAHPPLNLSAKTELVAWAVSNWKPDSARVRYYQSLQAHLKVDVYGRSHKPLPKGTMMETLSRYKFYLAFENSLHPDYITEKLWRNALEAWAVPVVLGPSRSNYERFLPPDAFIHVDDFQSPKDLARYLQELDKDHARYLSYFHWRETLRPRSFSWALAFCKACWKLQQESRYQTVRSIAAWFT
Experimental: Cell extracts containing 1% Triton X-100 were prepared from transfected COS-1 cells. Fucosyltransferase assays were performed in a total volume of 20 μl, and contained 25 mM sodium cacodylate, pH6.2, 5 mM ATP, 10 mM L-fucose, 10 mM MnCl2, 3 μM GDP-^14C-fucose, and 5 μl of cell extract. Acceptor substrates were added to a final concentration of 20 mM. Reactions were incubated at 37° C. for 1 hour and terminated by addition of 20 μl ethanol, followed by addition of 600 μl of distilled water. An aliquot of each reaction (50 μl) was subjected to scintillation counting to determine total radioactivity in the reaction. Another aliquot (200 μl) was applied to a column containing 400 μl of Dowex 1X2-400, formate form. The flow through fraction, and […] of a subsequent water elution, were collected and pooled, and an aliquot was subjected to scintillation counting to quantitate incorporation of radioactive fucose into neutral product.
(§1) Table 2 presents the relative product formation rates obtained with low molecular weight acceptor substrates using cell extracts containing recombinant human α(1,3)fucosyltransferases expressed in transfected COS-1 cells, as described in the preceding sections. Fucosyltransferase assays were performed as described in detail in Lowe et al, J. Biol. Chem., (1991), 266:17467-17477; Weston et al, J. Biol. Chem. (1992), 267:4152-4160; and Kukowska-Latallo et al, Genes. Devel., (1990), 4:1288-1303. For each enzyme, the same extract was used, with saturating amounts of each acceptor oligosaccharide (20 mM, except for 2′-fucosylactose which was used at 5 mM), and GDP-^14C]fucose was present at 3 μM. Reaction times and enzyme amounts were adjusted to ensure a linear rate of product formation (less than 15% of the GDP-fucose substrate consumed). Products were separated by column chromatography and quantitated by liquid scintillation counting, and their structures were confirmed by high performance liquid chromatography, as described in Lowe et al, J. Biol. Chem., (1991), 266:17467-17477; Weston et al, J. Biol. Chem. (1992), 267:4152-4160; and Kukowska-Latallo et al, Genes. Devel., (1990), 4:1288-1303.

Fuc-TVI = molecular target: T2, Fuc-TVI (Homo sapiens, UniProt P51993); assay: Fucosyltransferase assay, extracts of COS-1 cells transfected with pCDNA1-Fuc-TVI; assay type: biochemical; conditions: for utilization as acceptor substrate by Fuc-TVI (in words): extracts of COS-1 cells transfected with pCDNA1-Fuc-TVI; for Relative Activity (%) with Fuc-TVI: relative product formation rate, N-acetyllactosamine = 100, acceptor 20 mM (2-fucosyllactose 5 mM), GDP-[14C]fucose 3 μM, transfected COS-1 cell extract
T2 construct: a 1.2 kb fragment containing the entire open reading frame was generated by the polymerase chain reaction; expressed in transfected cells; host or cells: COS-1 cells, transient transfection, 1% Triton X-100 extract
T2 sequence (P51993 1-359): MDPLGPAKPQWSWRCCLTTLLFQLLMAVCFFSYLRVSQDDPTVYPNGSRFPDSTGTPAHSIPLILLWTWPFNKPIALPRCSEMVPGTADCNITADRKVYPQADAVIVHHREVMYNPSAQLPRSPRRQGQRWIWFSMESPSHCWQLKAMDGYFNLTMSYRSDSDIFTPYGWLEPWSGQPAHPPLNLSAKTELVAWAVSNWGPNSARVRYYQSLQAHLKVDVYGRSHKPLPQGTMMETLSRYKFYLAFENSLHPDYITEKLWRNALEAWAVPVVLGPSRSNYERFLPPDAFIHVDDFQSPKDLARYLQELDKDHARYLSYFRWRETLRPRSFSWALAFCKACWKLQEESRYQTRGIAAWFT
Experimental: Cell extracts containing 1% Triton X-100 were prepared from transfected COS-1 cells, using procedures described previously (Kukowska-Latallo et al, Genes Devel., 4:1288-1303, 1990). Fucosyltransferase assays were performed in a total volume of 20 μl, and contained 50 mM sodium cacodylate, pH 6.2, 5 mM ATP, 10 mM fucose, 20 mM MnCl2, 3 μM GDP-^14C-fucose, and 5 μl (30 μg protein) of cell extract. Acceptor substrates were added to a final concentration of 20 mM. Reactions were incubated at 37° C. for 1 hour and terminated by addition of 20 μl ethanol, followed by addition of 600 μl of distilled water. An aliquot of each reaction (50 μl) was subjected to scintillation counting to determine total radioactivity in the reaction. Another aliquot (200 μl) was applied to a column containing 400 μl of Dowex 1X2-400, formate form (Rajan et al, J. Biol. Chem., 264:11158-11167, 1989). The flow through fraction, and […] of a subsequent water elution, were collected and pooled, and an aliquot was subjected to scintillation counting to quantitate incorporation of radioactive fucose into neutral product.
as §1

Compound	utilization as acceptor substrate by Fuc-TV (in words) (Fuc-TV)	Relative Activity (%) with Fuc-TV (Fuc-TV) [%]	utilization as acceptor substrate by Fuc-TVI (in words) (Fuc-TVI)	Relative Activity (%) with Fuc-TVI (Fuc-TVI) [%]
CC(=O)N[C@H]1C(O)O[C@H](CO)[C@@H](O[C@@H]2O[C@H](CO)[C@H](O)[C@H](O)[C@H]2O)[C@@H]1O (some centres unmarked) [N-acetyllactosamine]	utilized	100	utilized	100
Fucα(1,2)Galβ(1,4)Glc [2-fucosyllactose]	substantially lower efficiencies	42	did not function as acceptor substrates	<1
CC(=O)N[C@@H]1[C@@H](O[C@@H]2O[C@H](CO)[C@H](O)[C@H](O)[C@H]2O)[C@H](O)[C@@H](CO)O[C@@H]1O [lacto-N-biose I]	low efficiency	10	not utilized	<1

Continued, values first:

utilization as acceptor substrate by Fuc-TV (in words) (Fuc-TV)	Relative Activity (%) with Fuc-TV (Fuc-TV) [%]	utilization as acceptor substrate by Fuc-TVI (in words) (Fuc-TVI)	Relative Activity (%) with Fuc-TVI (Fuc-TVI) [%]	Compound
substantially lower efficiencies	11	did not function as acceptor substrates	<1	OC[C@H]1O[C@@H](O[C@H]2[C@H](O)[C@@H](O)C(O)O[C@@H]2CO)[C@H](O)[C@@H](O)[C@H]1O (some centres unmarked) [lactose]
efficiently utilized	115	efficiently utilized	110	CC(=O)NC1C(O)OC(CO)C(OC2OC(CO)C(O)C(OC3(C(=O)O)CC(O)C(NC(C)=O)C(C(O)C(O)CO)O3)C2O)C1O (stereo not drawn) [α(2,3)sialyllactosamine, NeuAcα(2→3)Galβ(1→4)GlcNAc]
